Laboratory results reported in patent publication US8309129B2, “Nanoparticles comprising a drug, ethylcellulose, and a bile salt” (Bend Research, Inc., priority 2007, dated 2012).
≈ marks a conversion by molar mass, not a printed value. Where two headings read alike, the source gives them in different places.

Assays:
Format in all cases: physicochemical
[1] = Solubility of the drug
[2] = Measurement of free drug
Method: In one embodiment, the compositions of the present invention are capable of improving the concentration of dissolved drug in a use environment relative to a control composition consisting essentially of the drug alone without any ethylcellulose or bile salt. In order to determine concentration enhancement in vitro, the amount of “free” drug, or solvated drug is measured. By “free” drug is meant drug which is in the form of dissolved drug or present in micelles, but which is not in the nanoparticles or any solid particles larger than 500 nm, such as precipitate. A composition of the invention provides concentration enhancement if, when administered to an aqueous use environment, it provides a free drug concentration that is at least 1.25-fold the free drug concentration provided by the control composition. Preferably, the free drug concentration provided by the compositions of the invention are at least about 1.5-fold, more preferably at least about 2-fold, and most preferably at least about 3-fold that provided by the control composition.
The amount of free drug provided by a suspension of the nanoparticles of Example 11 was measured using the following procedure. […]
The amount of free drug provided by a suspension of the nanoparticles of Example 12 was measured as follows. […]

[3] = Nanoparticle dissolution test of valdecoxib in Hank's buffer; settings: percent of total drug released per minute, 10 μg/mL, 37° C.
Method: The dissolution rate of valdecoxib from nanoparticles of Example 12 was measured using the dissolution test as follows. The spray-dried composition of Example 12 were added to Hank's buffer to obtain a valdecoxib concentration of about 1 mgA/mL. The suspension was diluted to 10 μg/mL by adding 0.2 mL suspension to 20 mL buffer. The diluted suspension was placed on a shaker table in a 37° C. chamber, and aliquots were removed at 2, 5, and 10 minutes. The aliquots were centrifuged for 5 minutes at 12,000 rpm using a 30,000-dalton molecular-weight cutoff centrifuge tube filter, and 100 μL of the supernatant was added to 250 μL acetonitrile. The samples were assayed by HPLC. Crystalline drug alone was tested for comparison. The dissolution rate for nanoparticles of the invention was 3.6 times that of crystalline drug alone.

[4] = Dynamic light scattering (DLS) of aqueous nanoparticle suspension as formed; settings: Tables 5 and 6; valdecoxib suspension samples
Description: The nanoparticles are small particles comprising the drug, ethylcellulose, and a bile salt. By “nanoparticles” is meant a plurality of small particles in which the average size of the particles in suspension is less than about 500 nm. By “average size” is meant the effective cumulant diameter as measured by dynamic light scattering, using for example, Brookhaven Instruments' 90Plus particle sizing instrument. By “size” is meant the diameter for spherical particles, or the maximum diameter for non-spherical particles. Preferably, the average size of the nanoparticles is less than 400 nm, more preferably less 300 nm, more preferably less than 150 nm, more preferably less than 100 nm, and most preferably less than 75 nm.
The width of the particle size distribution in suspension is given by the “polydispersity” of the particles, which is defined as the relative variance in the correlation decay rate distribution, as is known by one skilled in the art. […]
The particle size of the nanoparticles in the aqueous suspension was determined using dynamic light scattering (DLS) as follows. […] Dynamic light-scattering was measured using a Brookhaven Instruments (Holtsville, N.Y.) BI-200SM particle size analyzer with a BI-9000AT correlator. The sums of exponentials from the autocorrelation functions were analyzed using CONTIN software to extract size distributions from the samples. […]

[5] = water, read-out: solubility in water
[6] = MFD solution, fassgf or other biorelevant, read-out: solubility in MFD solution

| solubility [1, 5] | solubility [1, 6] | Structure (SMILES) | also measured |
| --- | --- | --- | --- |
| < 0.1 µg/mL | – | CCOC(=O)N1c2ccc(C(F)(F)F)cc2[C@@H](N(Cc2cc(C(F)(F)F)cc(C(F)(F)F)c2)C(=O)OC)C[C@H]1CC [Drug 3, [2R,4S]4-[(3,5-bis-trifluoromethyl-benzyl)-methoxycarbonyl-amino]-2-ethyl-6-trifluoromethyl-3,4-dihydro-2H-quinoline-1-carboxylic acid ethyl ester] | – |
| – | ~11 µg/mL (≈ 18.4 µM) | CC[C@@H]1C[C@H](N(Cc2cc(C(F)(F)F)cc(C(F)(F)F)c2)C(C)=O)c2cc(C(F)(F)F)ccc2N1C(=O)OC(C)C [Drug 4, [2R,4S]4-[acetyl-(3,5-bis-trifluoromethyl-benzyl)-amino]-2-ethyl-6-trifluoromethyl-3,4-dihydro-2H-quinoline-1-carboxylic acid isopropyl ester] | – |

More lines, now with the values behind:

| Structure (SMILES) | solubility [1, 5] | solubility [1, 6] | also measured |
| --- | --- | --- | --- |
| Cc1onc(-c2ccccc2)c1-c1ccc(S(N)(=O)=O)cc1 [Crystalline Valdecoxib, valdecoxib] | – | – | Free Drug ([2]; Table 5, aqueous suspension prior to spray-drying, 100,000-dalton cutoff filtrate): 11 µg/mL; Free Drug ([2]; Table 6, spray-dried composition in dextrose solution, 100,000-dalton cutoff filtrate): 11 µg/mL; Dissolution Rate [3]: 5.0 %/min; Average Particle Size [4]: >1000 nm |
| Cc1ccc(-c2cc(C(F)(F)F)nn2-c2ccc(S(N)(=O)=O)cc2)cc1 [Drug 1, 4-[5-(4-methylphenyl)-3-(trifluoromethyl)-1H-pyrazol-1-yl]benzenesulfonamide] | – | ~40 µg/mL (≈ 105 µM) | – |
| Cc1onc(-c2ccccc2)c1-c1ccc(S(N)(=O)=O)cc1 [Drug 2, 4-(5-methyl-3-phenyl-4-isoxazolyl)benzenesulfonamide] | ~10 µg/mL (≈ 31.8 µM) | – | – |
